According to the NIST ThermoML archive (doi:10.1021/je700546r):
Several values for one entry are separate records, joined by “and”; a condition that tells them apart may be missing. Equal entries are not always repeated. Numbers after ± are expanded uncertainties.

How the values were obtained:
[1] = for Triple point temperature: Adiabatic calorimetry
[2] = Molar enthalpy of transition or fusion; settings: Crystal 1; Adiabatic calorimetry
[3] = molar heat capacity at constant pressure; settings: 100 kPa, Small (less than 1 g) adiabatic calorimetry

## ON=C1CCCCC1 [cyclohexanone oxime]
[1]; 285.7 K, Crystal 2, Transpiration method
  vapor or sublimation pressure: 0.00078 ± 6e-05 kPa
[1]; 288.11 K, Crystal 2, Knudsen effusion
  vapor or sublimation pressure: 0.001028 ± 6.3e-05 kPa
[1]; 290 K, Crystal 2, Transpiration method
  vapor or sublimation pressure: 0.00118 ± 9e-05 kPa
[1]; 292.6 K, Crystal 2, Transpiration method
  vapor or sublimation pressure: 0.00157 ± 0.00012 kPa
[1]; 293.82 K, Crystal 2, Knudsen effusion
  vapor or sublimation pressure: 0.00186 ± 0.00012 kPa
[1]; 293.87 K, Crystal 2, Knudsen effusion
  vapor or sublimation pressure: 0.001759 ± 0.00012 kPa
[1]; 295.1 K, Crystal 2, Transpiration method
  vapor or sublimation pressure: 0.00215 ± 0.00016 kPa
[1]; 298.1 K, Crystal 2, Transpiration method
  vapor or sublimation pressure: 0.00275 ± 0.0002 kPa
[1]; 298.2 K, Crystal 2, Transpiration method
  vapor or sublimation pressure: 0.00302 ± 0.00022 kPa and 0.00293 ± 0.00021 kPa
[1]; 298.77 K, Crystal 2, Knudsen effusion
  vapor or sublimation pressure: 0.003118 ± 0.00019 kPa
[1]; 301.1 K, Crystal 2, Transpiration method
  vapor or sublimation pressure: 0.00396 ± 0.00028 kPa
[1]; 302.9 K, Crystal 1, Transpiration method
  vapor or sublimation pressure: 0.005 ± 0.00036 kPa
[1]; 303.73 K, Crystal 1, Knudsen effusion
  vapor or sublimation pressure: 0.005234 ± 0.00032 kPa
[1]; 303.74 K, Crystal 1, Knudsen effusion
  vapor or sublimation pressure: 0.005145 ± 0.00032 kPa
[1]; 305.4 K, Crystal 1, Transpiration method
  vapor or sublimation pressure: 0.00626 ± 0.00045 kPa
[1]; 307.6 K, Crystal 1, Transpiration method
  vapor or sublimation pressure: 0.00806 ± 0.00059 kPa
[1]; 308.7 K, Crystal 1, Knudsen effusion
  vapor or sublimation pressure: 0.00837 ± 0.00051 kPa
[1]; 310.2 K, Crystal 1, Transpiration method
  vapor or sublimation pressure: 0.01034 ± 0.00075 kPa
[1]; 313 K, Crystal 1, Transpiration method
  vapor or sublimation pressure: 0.0136 ± 0.00097 kPa
[1]; 313.62 K, Crystal 1, Knudsen effusion
  vapor or sublimation pressure: 0.01375 ± 0.00084 kPa
[1]; 315.3 K, Crystal 1, Transpiration method
  vapor or sublimation pressure: 0.01601 ± 0.0012 kPa
[1]; 318 K, Crystal 1, Transpiration method
  vapor or sublimation pressure: 0.02155 ± 0.0016 kPa
[1]; 320.3 K, Crystal 1, Transpiration method
  vapor or sublimation pressure: 0.02671 ± 0.0019 kPa
[1]; 323.1 K, Crystal 1, Transpiration method
  vapor or sublimation pressure: 0.03364 ± 0.0024 kPa
[1]; 323.32 K, Crystal 1, Knudsen effusion
  vapor or sublimation pressure: 0.03373 ± 0.0022 kPa
[1]; 323.35 K, Crystal 1, Knudsen effusion
  vapor or sublimation pressure: 0.03472 ± 0.0022 kPa
[1]; 325.4 K, Crystal 1, Transpiration method
  vapor or sublimation pressure: 0.04273 ± 0.0031 kPa
[1]; 328 K, Crystal 1, Transpiration method
  vapor or sublimation pressure: 0.05312 ± 0.0038 kPa
[1]; 330.4 K, Crystal 1, Transpiration method
  vapor or sublimation pressure: 0.06593 ± 0.0047 kPa
[1]; 333.1 K, Crystal 1, Transpiration method
  vapor or sublimation pressure: 0.08234 ± 0.0059 kPa
[1]; 338.2 K, Crystal 1, Transpiration method
  vapor or sublimation pressure: 0.1232 ± 0.0087 kPa
[1]; 340.2 K, Crystal 1, Transpiration method
  vapor or sublimation pressure: 0.1376 ± 0.0098 kPa
[1]; 343.3 K, Crystal 1, Transpiration method
  vapor or sublimation pressure: 0.1758 ± 0.013 kPa
[1]; 345.6 K, Crystal 1, Transpiration method
  vapor or sublimation pressure: 0.213 ± 0.015 kPa
[1]; 348.3 K, Crystal 1, Transpiration method
  vapor or sublimation pressure: 0.2639 ± 0.019 kPa
[1]; 364.6 K, Liquid, Transpiration method
  vapor or sublimation pressure: 0.8624 ± 0.06 kPa
[1]; 365.7 K, Liquid, Transpiration method
  vapor or sublimation pressure: 0.8948 ± 0.063 kPa
[1]; 367.9 K, Liquid, Transpiration method
  vapor or sublimation pressure: 1.03 ± 0.073 kPa
[1]; 369.7 K, Liquid, Transpiration method
  vapor or sublimation pressure: 1.119 ± 0.079 kPa
[1]; 370.5 K, Liquid, Transpiration method
  vapor or sublimation pressure: 1.181 ± 0.083 kPa
[1]; 373.6 K, Liquid, Transpiration method
  vapor or sublimation pressure: 1.388 ± 0.098 kPa
[1]; 373.7 K, Liquid, Transpiration method
  vapor or sublimation pressure: 1.405 ± 0.099 kPa
[1]; 376.6 K, Liquid, Transpiration method
  vapor or sublimation pressure: 1.661 ± 0.12 kPa
[1]; 377.7 K, Liquid, Transpiration method
  vapor or sublimation pressure: 1.759 ± 0.12 kPa
[1]; 377.8 K, Liquid, Transpiration method
  vapor or sublimation pressure: 1.786 ± 0.13 kPa
[1]; 379.7 K, Liquid, Transpiration method
  vapor or sublimation pressure: 1.922 ± 0.13 kPa
[1]; 381.8 K, Liquid, Transpiration method
  vapor or sublimation pressure: 2.124 ± 0.15 kPa
[1]; 382.8 K, Liquid, Transpiration method
  vapor or sublimation pressure: 2.221 ± 0.16 kPa
[1]; 385.8 K, Liquid, Transpiration method
  vapor or sublimation pressure: 2.574 ± 0.18 kPa
[1]; 388.9 K, Liquid, Transpiration method
  vapor or sublimation pressure: 3.046 ± 0.21 kPa
[1]; 391.9 K, Liquid, Transpiration method
  vapor or sublimation pressure: 3.486 ± 0.24 kPa
[1]; 394.9 K, Liquid, Transpiration method
  vapor or sublimation pressure: 3.978 ± 0.28 kPa
[1]; Crystal 1
  Triple point temperature: 362.2 ± 0.09 K
[1]; Crystal 2
  Triple point temperature: 301.5 ± 1 K
[1]; Crystal 3
  Triple point temperature: 241.5 ± 1 K
[2]
  Molar enthalpy of transition or fusion: 2.977 ± 0.00454 kcal/mol
[3]; 5 K, Crystal 3
  molar heat capacity at constant pressure: 0.3674 ± 0.023 J/K/mol
[3]; 10 K, Crystal 3
  molar heat capacity at constant pressure: 2.982 ± 0.058 J/K/mol
[3]; 15 K, Crystal 3
  molar heat capacity at constant pressure: 7.554 ± 0.12 J/K/mol
[3]; 20 K, Crystal 3
  molar heat capacity at constant pressure: 12.9 ± 0.14 J/K/mol
[3]; 25 K, Crystal 3
  molar heat capacity at constant pressure: 18.36 ± 0.16 J/K/mol
[3]; 30 K, Crystal 3
  molar heat capacity at constant pressure: 23.53 ± 0.18 J/K/mol
[3]; 35 K, Crystal 3
  molar heat capacity at constant pressure: 28.21 ± 0.2 J/K/mol
[3]; 40 K, Crystal 3
  molar heat capacity at constant pressure: 32.42 ± 0.23 J/K/mol
[3]; 45 K, Crystal 3
  molar heat capacity at constant pressure: 36.26 ± 0.25 J/K/mol
[3]; 50 K, Crystal 3
  molar heat capacity at constant pressure: 39.78 ± 0.27 J/K/mol
[3]; 60 K, Crystal 3
  molar heat capacity at constant pressure: 45.91 ± 0.29 J/K/mol
[3]; 70 K, Crystal 3
  molar heat capacity at constant pressure: 51.28 ± 0.33 J/K/mol
[3]; 80 K, Crystal 3
  molar heat capacity at constant pressure: 56.24 ± 0.35 J/K/mol
[3]; 90 K, Crystal 3
  molar heat capacity at constant pressure: 60.87 ± 0.4 J/K/mol
[3]; 100 K, Crystal 3
  molar heat capacity at constant pressure: 65.47 ± 0.42 J/K/mol
[3]; 110 K, Crystal 3
  molar heat capacity at constant pressure: 69.94 ± 0.44 J/K/mol
[3]; 120 K, Crystal 3
  molar heat capacity at constant pressure: 74.33 ± 0.46 J/K/mol
[3]; 130 K, Crystal 3
  molar heat capacity at constant pressure: 78.7 ± 0.48 J/K/mol
[3]; 140 K, Crystal 3
  molar heat capacity at constant pressure: 83.1 ± 0.5 J/K/mol
[3]; 150 K, Crystal 3
  molar heat capacity at constant pressure: 87.59 ± 0.52 J/K/mol
[3]; 160 K, Crystal 3
  molar heat capacity at constant pressure: 92.16 ± 0.55 J/K/mol
[3]; 170 K, Crystal 3
  molar heat capacity at constant pressure: 96.94 ± 0.57 J/K/mol
[3]; 180 K, Crystal 3
  molar heat capacity at constant pressure: 102.1 ± 0.6 J/K/mol
[3]; 190 K, Crystal 3
  molar heat capacity at constant pressure: 107.7 ± 0.6 J/K/mol
[3]; 200 K, Crystal 3
  molar heat capacity at constant pressure: 113.9 ± 0.7 J/K/mol
[3]; 210 K, Crystal 3
  molar heat capacity at constant pressure: 122.3 ± 0.7 J/K/mol
[3]; 220 K, Crystal 3
  molar heat capacity at constant pressure: 132.6 ± 0.7 J/K/mol
[3]; 230 K, Crystal 3
  molar heat capacity at constant pressure: 141.9 ± 0.8 J/K/mol
[3]; 240 K, Crystal 3
  molar heat capacity at constant pressure: 150.7 ± 0.8 J/K/mol
[3]; 250 K, Crystal 2
  molar heat capacity at constant pressure: 153.4 ± 0.8 J/K/mol
[3]; 260 K, Crystal 2
  molar heat capacity at constant pressure: 163.4 ± 0.9 J/K/mol
[3]; 270 K, Crystal 2
  molar heat capacity at constant pressure: 174.5 ± 0.9 J/K/mol
[3]; 280 K, Crystal 2
  molar heat capacity at constant pressure: 184.4 ± 1 J/K/mol
[3]; 290 K, Crystal 2
  molar heat capacity at constant pressure: 191.9 ± 1 J/K/mol
[3]; 298.15 K, Crystal 2
  molar heat capacity at constant pressure: 196.2 ± 1.1 J/K/mol
[3]; 300 K, Crystal 2
  molar heat capacity at constant pressure: 197.1 ± 1.1 J/K/mol
[3]; 310 K, Crystal 1
  molar heat capacity at constant pressure: 192.8 ± 1 J/K/mol
[3]; 320 K, Crystal 1
  molar heat capacity at constant pressure: 197.5 ± 1.1 J/K/mol
[3]; 330 K, Crystal 1
  molar heat capacity at constant pressure: 203 ± 1.1 J/K/mol
[3]; 340 K, Crystal 1
  molar heat capacity at constant pressure: 209 ± 1.1 J/K/mol
[3]; 350 K, Crystal 1
  molar heat capacity at constant pressure: 215.2 ± 1.1 J/K/mol
[3]; 360 K, Crystal 1
  molar heat capacity at constant pressure: 221.1 ± 1.2 J/K/mol
[3]; 362.2 K, Crystal 1
  molar heat capacity at constant pressure: 222.4 ± 1.2 J/K/mol
[3]; 362.2 K, Liquid
  molar heat capacity at constant pressure: 271.5 ± 1.4 J/K/mol
[3]; 365 K, Liquid
  molar heat capacity at constant pressure: 273.1 ± 1.4 J/K/mol
[3]; 370 K, Liquid
  molar heat capacity at constant pressure: 276 ± 1.4 J/K/mol
